US4258046A, “Pyrano-heterocycles and medicaments containing these compounds” (Hoechst Aktiengesellschaft, priority 1978, dated 1981)
Counter-ions that a name gives are not always drawn.

Key:
[1] = test system: passive cutaneous anaphylaxis (PCA) in rats; assay: Inhibition of passive cutaneous anaphylaxis (PCA) in rats on intravenous treatment; type: in vivo, Sprague-Dawley rats; settings: i.v., antiserum dilution 1:16
Procedure: (§1) The antiserum is directed against ovalbumine and is induced in rats by combined administration of ovalbumine with Bordetella pertussis as adjuvant and boostering with Nippostrongylus larvae. 72 hours after the intracutaneous administration of the antiserum, the intravenous injection of the antigen consisting of a mixture of each time 25 mg/kg of ovalbumine and Evans blue is effected, in order to trigger the cutaneous anaphylactic reaction. The compounds of the formula I or their salts are administered, if intravenously, directly before the injection of the ovalbumine-dyestuff mixture and if administered orally, 30 minutes before the administration of the ovalbumine-dyestuff mixture. 10 Minutes after the ovalbumine-dyestuff injection, the animals are sacrificed and the diameter of spreading of the dyestuff is measured in the hypodermis.
(§2) As comparative substance, the standard preparation di- sodium-chromoglycate(DSCG) is used.

[2] = test system: passive cutaneous anaphylaxis (PCA) in rats; assay: Inhibition of passive cutaneous anaphylaxis (PCA) in rats on oral treatment; type: in vivo, Sprague-Dawley rats
Procedure: The compounds of the invention of the formula I and their salts have strong antiallergic properties and are well tolerated on intravenous as well as oral administration in the models of passive cutaneous anaphylaxis (P C A) to rats.
as §1, with “According to the method described by J. Goose and A. M. J. N. Blair, Immunology 16, 749 (1969) a P C A is made ready on Sprague-Dawley rats by intracutaneous administration of homologous antiserum, 0.1 ml of a dilution of 1:16 and 1:32 in both flanks. The antiserum” for “The antiserum”
as §2

[3] = 10.0 mg/kg, antiserum dilution 1:16
[4] = 10.0 mg/kg, antiserum dilution 1:32

O=c1oc2c(c(O)c1[N+](=O)[O-])c(=O)n1c3c(cc(Cl)cc23)CCC1 [Example 24, 11-Chloro-7,8-dihydro-3-nitro-2,5-dioxo-2H,5H,9H-benzo-[ij]pyrano[2,3-b]quinolizine-4-ol-sodium salt]
% Inhibition against control ([1]; 0.1 mg/kg): 12%
% Inhibition against control ([1]; 0.3 mg/kg): 50%
% Inhibition against control ([1]; 1.0 mg/kg): 89%
% Inhibition against control ([1]; 3.0 mg/kg): 100%
% Inhibition against control ([2]; 0.3 mg/kg, antiserum dilution 1:16): 22%
% Inhibition against control ([2]; 0.3 mg/kg, antiserum dilution 1:32): 27%
% Inhibition against control ([2]; 1.0 mg/kg, antiserum dilution 1:16): 50%
% Inhibition against control ([2]; 1.0 mg/kg, antiserum dilution 1:32): 73%
% Inhibition against control ([2]; 3.0 mg/kg, antiserum dilution 1:16): 44%
% Inhibition against control ([2]; 3.0 mg/kg, antiserum dilution 1:32): 73%
% Inhibition against control [2, 3]: 44%
% Inhibition against control [2, 4]: 73%

CCn1c(=O)c2c(O)c([N+](=O)[O-])c(=O)oc2c2cc(F)ccc21.[Na] [Example 31, 6-Ethyl-9-fluoro-5,6-dihydro-3-nitro-2,5-dioxo-2H-pyrano[3,2-c]quinoline-4-ol-sodium salt]
% Inhibition against control ([1]; 0.01 mg/kg): 27%
% Inhibition against control ([1]; 0.03 mg/kg): 60%
% Inhibition against control ([1]; 0.1 mg/kg): 80%
% Inhibition against control ([1]; 0.3 mg/kg): 87%
% Inhibition against control ([1]; 3.0 mg/kg): 100%

O=C(O)c1cc(=O)c2c(OCC(O)COc3cccc4oc(C(=O)O)cc(=O)c34)cccc2o1 [DSCG, di- sodium-chromoglycate, reference compound]
% Inhibition against control ([1]; 0.1 mg/kg): 9%
% Inhibition against control ([1]; 0.3 mg/kg): 34%
% Inhibition against control ([1]; 1.0 mg/kg): 71%
activity when administered orally [2]: orally inactive
% Inhibition against control [2, 3]: 0%
% Inhibition against control [2, 4]: 0%
% Inhibition against control ([2]; 30.0 mg/kg, antiserum dilution 1:16): 5%
% Inhibition against control ([2]; 30.0 mg/kg, antiserum dilution 1:32): 0%

CCn1c(=O)c2c(O)c([N+](=O)[O-])c(=O)oc2c2cc(Cl)ccc21 [Example 30, 6-Ethyl-9-chloro-5,6-dihydro-3-nitro-2,5-dioxo-2H-pyrano[3,2-c]-quinoline-4-ol]
% Inhibition against control ([1]; 0.03 mg/kg): 50%
% Inhibition against control ([1]; 0.1 mg/kg): 88%
% Inhibition against control ([1]; 0.3 mg/kg): 100%

Cn1c(=O)c2c(O)c([N+](=O)[O-])c(=O)oc2c2cc(Cl)ccc21 [Example 25, 9-Chloro-5,6-dihydro-6-methyl-3-nitro-2,5-dioxo-2H-pyrano[3,2-c]quinoline-4-ol]
% Inhibition against control ([1]; 0.01 mg/kg): 44%
% Inhibition against control ([1]; 0.03 mg/kg): 67%
% Inhibition against control ([1]; 0.1 mg/kg): 100%

CCn1c(=O)c2c(O)c([N+](=O)[O-])c(=O)oc2c2cc(C(F)(F)F)ccc21 [Example 32, 6-Ethyl-5,6-dihydro-3-nitro-2,5-dioxo-9-trifluoromethyl-2H-pyrano[3,2-c]quinoline-4-ol]
% Inhibition against control ([1]; 0.03 mg/kg): 19%
% Inhibition against control ([1]; 0.1 mg/kg): 69%
% Inhibition against control ([1]; 0.3 mg/kg): 75%
% Inhibition against control ([1]; 3.0 mg/kg): 100%

CCn1c(=O)c2c(O)c([N+](=O)[O-])c(=O)oc2c2cc(Cl)c(Cl)cc21 [Example 35, 6-Ethyl-8,9-dichloro-5,6-dihydro-3-nitro-2,5-dioxo-2H-pyrano[3,2-c]quinoline-4-ol]
% Inhibition against control ([1]; 0.1 mg/kg): 20%
% Inhibition against control ([1]; 0.3 mg/kg): 53%
% Inhibition against control ([1]; 1.0 mg/kg): 73%
% Inhibition against control ([1]; 30.0 mg/kg): 100%
